In patent US10941157B2, “Pesticidal compositions and uses thereof” (Gilead Apollo, LLC, priority 2015, dated 2021):
Values after ≈ are worked out from the molar mass of the structure shown.

Key:
Botrtyis cinerea (Bc) = assay: In vitro pathogen growth inhibition assay, Bc; type: cell-based; conditions: 48 h, ≥90% growth inhibition; 48 hours; vs 2% DMSO control; read-out: Compound Concentration (ppm) sufficient for ≥90% inhibition of Bc
Outline: (§1)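 Value reported is the compound concentration reaching ≥90% growth inhibition, from OD readings at 24 and 48 h after blank subtraction, confirmed visually. Inoculum was spores diluted in 17% V8 medium, except Rs, using 1.5 mm mycelial plugs in ¼ PDB; actual compound concentration corrected via OD600.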

[1] = tested on: Collectotrichum graminicola (Cg); assay: In vitro pathogen growth inhibition assay, Cg; type: cell-based; conditions: 48 h, ≥90% growth inhibition; 48 hours; vs 2% DMSO control; read-out: Compound Concentration (ppm) sufficient for ≥90% inhibition of Cg
Outline: as §1

Diplodia maydis (Dm) = assay: In vitro pathogen growth inhibition assay, Dm; type: cell-based; conditions: Stenocarpella maydis, 48 h, ≥90% growth inhibition; 48 hours; vs 2% DMSO control; read-out: Compound Concentration (ppm) sufficient for ≥90% inhibition of Dm
Outline: (§2)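 Spores in 17% V8 liquid medium, or 1.5 mm Rs mycelial plugs in ¼ PDB, incubated with compound; final concentration checked by OD600 for precipitation. OD readings at 24 and 48 h, blank-subtracted, plus visual ratings; value is concentration giving ≥90% growth inhibition.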

[2] = tested on: Fusarium moniliforme (Fm); assay: In vitro pathogen growth inhibition assay, Fm; type: cell-based; conditions: Fusarium verticillioides; ≥90% growth inhibition; 48 hours; vs 2% DMSO control; read-out: Compound Concentration (ppm) sufficient for ≥90% inhibition of Fm
Outline: as §1

[3] = tested on: Fusarium virguliforme (Fv); assay: In vitro pathogen growth inhibition assay, Fv; type: cell-based; conditions: ≥90% growth inhibition, 48 hours, vs 2% DMSO control, read-out: Compound Concentration (ppm) sufficient for ≥90% inhibition of Fv
Outline: as §2

[4] = tested on: Phytophthora capsici (Pc); assay: In vitro pathogen growth inhibition assay, Pc; type: cell-based; conditions: 48 h, ≥90% growth inhibition, 48 hours, vs 2% DMSO control, read-out: Compound Concentration (ppm) sufficient for ≥90% inhibition of Pc
Outline: as §2

Rhizoctonia solani (Rs) = assay: In vitro pathogen growth inhibition assay, Rs (mycelial plugs); type: cell-based; conditions: Rhizoctonia solani, 48 h, ≥90% growth inhibition; mycelial plugs; 48 hours; vs 2% DMSO control; read-out: Compound Concentration (ppm) sufficient for ≥90% inhibition of Rs
Outline: as §2

Septoria tritici (St) = assay: In vitro pathogen growth inhibition assay, St; type: cell-based; conditions: Zymoseptoria tritici, 48 h, ≥90% growth inhibition; 48 hours; vs 2% DMSO control; read-out: Compound Concentration (ppm) sufficient for ≥90% inhibition of St
Outline: as §1

[5] = tested on: Blumeria graminis f. sp. hordei; assay: Foliar protection test for barley powdery mildew control; type: in vivo; conditions: foliar spray on Hordeum vulgare cv. Perry, inoculated 24 hours after treatment, evaluated 7 days later
Outline: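 Protective foliar test: compound atomized onto both leaf surfaces of 6-day-old Hordeum vulgare cv. Perry, followed after 24 h by spore-cloud inoculation from colonized untreated plants. Disease rated on leaves 7 days on, plants held at 20 to 22° C and 70% RH.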

Sphaerotheca fuliginea = assay: Foliar protection for cucumber powdery mildew control; type: in vivo; conditions: foliar spray on Cucumis sativus cv. Straight Eight, inoculated 24 hours after treatment, evaluated 7 days later
Outline: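 Protective foliar spray on 10-day-old Straight Eight cucumbers, with S. fuliginea spores dusted from infected stock plants 24 h after treatment. Disease developed at 23–27 °C, 60% RH and a 16 h photoperiod. Leaves were rated for mildew growth after 7 days; test rates 10 ppm or below.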

[6] = tested on: Mycosphaerella graminicola (synthetic Septoria tritici); assay: Foliar protection test for wheat septoria leaf blotch control; type: in vivo; conditions: foliar spray on Triticum aestivum cv. WinterHawk, inoculated 1 hour after treatment, evaluated 16 days later
Fusarium graminearum = type: in vivo; conditions: spray on flowering Triticum aestivum cv. Samson, inoculated 24 hours after treatment, evaluated 14 days later
Puccinia triticina = assay: Foliar protection test for wheat leaf rust control; type: in vivo; conditions: foliar application to wheat (Triticum aestivum cv. Winterhawk), evaluated 10 days later
Phakopsora pachyrhizi = assay: Foliar protection test for Asian soybean rust control; type: in vivo; conditions: foliar application to soybean (Glycine max AG4832), percent disease area evaluated 14 days later

Row | Compound | IC90 (Botrtyis cinerea (Bc)) | IC90 [1] | IC90 (Diplodia maydis (Dm)) | IC90 [2] | IC90 [3] | IC90 [4] | IC90 (Rhizoctonia solani (Rs)) | IC90 (Septoria tritici (St)) | Barley Powdery Mildew Control at a compound concentration of 10 ppm or lower [5] | Cucumber Powdery Mildew Control at a compound concentration of 10 ppm or lower (Sphaerotheca fuliginea) | Septoria Leaf Blotch Control at a compound concentration of 25 ppm or lower [6] | Wheat Fusarium Head Blight Control at a compound concentration of 25 ppm or lower (Fusarium graminearum) | Wheat Leaf Rust Control at a compound concentration of 10 ppm or lower (Puccinia triticina) | Asian Soybean Rust Control at a compound concentration of 25 ppm or lower (Phakopsora pachyrhizi)
1 | CCNC(=O)C(C)(C)n1c(=O)c2c(C)c(C(=O)OCC)sc2n(C[C@H](OCCC#N)c2cc(F)ccc2OC)c1=O [Compound I-231, (R)-ethyl-1-(2-(2-cyanoethoxy)-2-(5-fluoro-2-methoxyphenyl)ethyl)-3-(1-(ethylamino)-2-methyl-1-oxopropan-2-yl)-5-methyl-2,4-dioxo-1,2,3,4-tetrahydrothieno[2,3-d]pyrimidine-6-carboxylate] | 2 µg/mL (≈ 3.4 µM) | 0.4 µg/mL (≈ 0.68 µM) | 0.4 µg/mL (≈ 0.68 µM) | 0.08 µg/mL (≈ 0.136 µM) | 2 µg/mL (≈ 3.4 µM) | > 50 µg/mL | 0.08 µg/mL (≈ 0.136 µM) | ≥ 10 µg/mL | AA (≥85% control of barley powdery mildew) | AA (≥85% control of cucumber powdery mildew) | C (from 25 to 49% control of wheat septoria leaf blotch) | C (from 25 to 49% control of wheat fusarium head blight) | AA (≥85% control of wheat leaf rust) | A (from 70% to 84% control of Asian soybean rust)
2 | CCOC(=O)c1sc2c(c1C)c(=O)n(C(C)(C)C(=O)NC(C)C)c(=O)n2C[C@H](OCCC#N)c1ccccc1OC [Compound I-233, (R)-ethyl-1-(2-(2-cyanoethoxy)-2-(2-methoxyphenyl)ethyl)-3-(1-(isopropylamino)-2-methyl-1-oxopropan-2-yl)-5-methyl-2,4-dioxo-1,2,3,4-tetrahydrothieno[2,3-d]pyrimidine-6-carboxylate] | 0.4 µg/mL (≈ 0.684 µM) | 0.4 µg/mL (≈ 0.684 µM) | 0.4 µg/mL (≈ 0.684 µM) | 0.08 µg/mL (≈ 0.137 µM) | 0.4 µg/mL (≈ 0.684 µM) | ≥ 2 µg/mL | 2 µg/mL (≈ 3.42 µM) | ≥ 10 µg/mL | AA (≥85% control of barley powdery mildew) | A (from 70% to 84% control of cucumber powdery mildew) | C (from 25 to 49% control of wheat septoria leaf blotch) | C (from 25 to 49% control of wheat fusarium head blight) | AA (≥85% control of wheat leaf rust) | A (from 70% to 84% control of Asian soybean rust)
3 | CCNC(=O)C(C)(C)n1c(=O)c2c(C)c(C(=O)OCC)sc2n(C[C@H](OCCC#N)c2ccccc2OC)c1=O [Compound I-234, (R)-ethyl-1-(2-(2-cyanoethoxy)-2-(2-methoxyphenyl)ethyl)-3-(1-(ethylamino)-2-methyl-1-oxopropan-2-yl)-5-methyl-2,4-dioxo-1,2,3,4-tetrahydrothieno[2,3-d]pyrimidine-6-carboxylate] | 2 µg/mL (≈ 3.5 µM) | 2 µg/mL (≈ 3.5 µM) | 2 µg/mL (≈ 3.5 µM) | 0.08 µg/mL (≈ 0.14 µM) | 2 µg/mL (≈ 3.5 µM) | > 50 µg/mL | 2 µg/mL (≈ 3.5 µM) | > 10 µg/mL | AA (≥85% control of barley powdery mildew) | AA (≥85% control of cucumber powdery mildew) | C (from 25 to 49% control of wheat septoria leaf blotch) | C (from 25 to 49% control of wheat fusarium head blight) | AA (≥85% control of wheat leaf rust) | A (from 70% to 84% control of Asian soybean rust)
4 | COc1ccccc1[C@H](Cn1c(=O)n([C@@H](C)C(=O)N(C)C(C)C)c(=O)c2c(C)c(-n3nccn3)sc21)OCCC#N [Compound I-239, (S)-2-(1-((R)-2-(2-cyanoethoxy)-2-(2-methoxyphenyl)ethyl)-5-methyl-2,4-dioxo-6-(2H-1,2,3-triazol-2-yl)-1,4-dihydrothieno[2,3-d]pyrimidin-3 (2H)-yl)-N-isopropyl-N-methylpropanamide] | 2 µg/mL (≈ 3.45 µM) | 2 µg/mL (≈ 3.45 µM) | 2 µg/mL (≈ 3.45 µM) | 0.08 µg/mL (≈ 0.138 µM) | 0.08 µg/mL (≈ 0.138 µM) | ≥ 10 µg/mL | 0.08 µg/mL (≈ 0.138 µM) | ≥ 10 µg/mL | AA (≥85% control of barley powdery mildew) | AA (≥85% control of cucumber powdery mildew) | D (<25% control of wheat septoria leaf blotch) | C (from 25 to 49% control of wheat fusarium head blight) | AA (≥85% control of wheat leaf rust) | AA (≥85% control of Asian soybean rust)
5 | CCc1ccc(F)cc1[C@H](Cn1c(=O)n(C(C)(C)C(=O)NC(C)C)c(=O)c2c(C)c(-n3nccn3)sc21)OCCO [Compound I-246, (R)-2-(1-(2-(2-ethyl-5-fluorophenyl)-2-(2-hydroxyethoxy)ethyl)-5-methyl-2,4-dioxo-6-(2H-1,2,3-triazol-2-yl)-1,4-dihydrothieno[2,3-d]pyrimidin-3 (2H)-yl)-N-isopropyl-2-methylpropanamide] | 0.4 µg/mL (≈ 0.682 µM) | 0.08 µg/mL (≈ 0.136 µM) | 0.4 µg/mL (≈ 0.682 µM) | 0.08 µg/mL (≈ 0.136 µM) | 0.08 µg/mL (≈ 0.136 µM) | 10 µg/mL (≈ 17 µM) | 0.1 µg/mL (≈ 0.17 µM) | ≥ 2 µg/mL | A (from 70% to 84% control of barley powdery mildew) | AA (≥85% control of cucumber powdery mildew) | A (from 70% to 84% control of wheat septoria leaf blotch) | B (from 50 to 69% control of wheat fusarium head blight) | A (from 70% to 84% control of wheat leaf rust) | AA (≥85% control of Asian soybean rust)
